Results published in paper PMC11330772, “Unveiling the kinetic versatility of aryl-alcohol oxidases with different electron acceptors” (Frontiers in Bioengineering and Biotechnology, 2024).
Read-outs that look alike come from different tables or passages of the source. Each block holds one molecule with its values, some of them ahead of it.

Experiments:
PeAAO [1] = biological target: T1, PeAAO (Pleurotus eryngii, UniProt O94219)
Description: (§4) Data were globally fitted to an equation describing a one-step process.

BaAAO [2] = biological target: T2, BaAAO (Bjerkandera adusta, UniProt A0ABF7PQ87)
Description: as §4

BaAAO [3] = biological target: T2, BaAAO; parameters: method as in Ferreira et al. (2023); conditions: alcohol substrate 4-methoxybenzyl alcohol, 50 mM phosphate, pH 6.0, 25 °C, ref Ferreira et al. (2023); cited from earlier work
PeAAO [4] = biological target: T1, PeAAO; assay: Stopped-flow oxidative half-reaction (flavin reoxidation by O2 or BQ); conditions: PeAAO
PeAAO [5] = biological target: T1, PeAAO; assay: Steady-state bi-substrate kinetics of alcohol oxidation; format: biochemical
Experimental: (§1) Bi-substrate kinetics were analyzed by concurrently varying the concentration of the aforementioned alcohols and electron acceptors. Oxygen assays were carried out in a screw-cap cuvette where the alcohol was equilibrated with the desired concentration of O2 by bubbling with the appropriate O2/N2 gas mixture (4%, 10%, 21%, 44%, and 100% O2) for 10 min. Alcohol oxidation was initiated by the addition of the enzyme and followed at 285 nm for 4-methoxybenzaldehyde production and 295 nm in the case of 3-Cl-4-methoxybenzaldehyde (Δε285 = 16,950 M^−1cm^−1 and Δε295 = 15,000 M^−1cm^−1, respectively) ([Ferreira et al., 2005]). […]. BQ solutions were prepared immediately prior to use and protected from the light to avoid photodegradation.
(§2) The initial rates for bi-substrate kinetics were fitted to Eq. 1 or Eq. 2, which describe sequential and ping-pong kinetic mechanisms, respectively. […]

BaAAO [6] = biological target: T2, BaAAO; assay: as above; format: biochemical
Experimental: as §1, §2

PeAAO [7] = biological target: T1, PeAAO; parameters: method as in Ferreira et al. (2023); conditions: alcohol substrate 4-methoxybenzyl alcohol, 50 mM phosphate, pH 6.0, 25 °C, ref Ferreira et al. (2023); cited from earlier work
PeAAO [8] = biological target: T1, PeAAO; conditions: pH 6.0, 12 °C, cited from earlier work
PeAAO [9] = biological target: T1, PeAAO; assay: Stopped-flow reductive half-reaction (flavin reduction by alcohol); format: biochemical
Experimental: (§3) Studies on the reductive half-reaction were performed by mixing AAO (∼10 μM, final concentration) with increasing concentrations of alcohols under anaerobic conditions. Observed rate constants (k obs) were calculated using global analysis and numerical integration methods, simultaneously utilizing all spectral data in the 400–800 nm region along time evolution using the ProKineticist software from Applied Photophysics.

BaAAO [10] = biological target: T2, BaAAO; assay: as above; format: biochemical; conditions: anaerobic, 50 mM sodium phosphate, pH 6.0, 25 °C
Experimental: as §3

BaAAO [11] = biological target: T2, BaAAO; assay: Redox state of the enzyme during turnover (stopped-flow); format: biochemical; conditions: in the presence of O2 (air), saturating alcohol, pH 6.0, 25 °C
BaAAO [12] = biological target: T2, BaAAO; assay: biochemical
Description: as §4

PeAAO [13] = biological target: T1, PeAAO; parameters: method as in Carro et al. (2018a); conditions: pH 6.0, 12 °C, ref Carro et al. (2018a), cited from earlier work
[14] = substrate: O=C1C=CC(=O)C=C1; assay: Steady-state bi-substrate kinetics of alcohol oxidation; format: biochemical, Bjerkandera adusta; conditions: other: BaAAO, alcohol substrate 3-Cl-4-methoxybenzyl alcohol, 50 mM phosphate, pH 6.0, 25 °C
Experimental: as §1, §2

[15] = substrate: COc1ccc(CO)cc1Cl; assay: as above; format: biochemical, Bjerkandera adusta; conditions: other: BaAAO, 50 mM phosphate, pH 6.0, 25 °C
Experimental: as §1, §2

[16] = substrate: O=C1C=CC(=O)C=C1; assay: as above; format: biochemical, Pleurotus eryngii; conditions: other: PeAAO, alcohol substrate 3-Cl-4-methoxybenzyl alcohol, 50 mM phosphate, pH 6.0, 25 °C
Experimental: as §1, §2

[17] = substrate: COc1ccc(CO)cc1Cl; assay: as above; format: biochemical, Pleurotus eryngii; conditions: other: PeAAO, 50 mM phosphate, pH 6.0, 25 °C
Experimental: as §1, §2

[18] = 50 mM sodium phosphate, pH 6.0, 12 °C
[19] = alcohol substrate 3-Cl-4-methoxybenzyl alcohol, 50 mM phosphate, pH 6.0, 25 °C
[20] = BaAAO, alcohol substrate 3-Cl-4-methoxybenzyl alcohol, 50 mM phosphate, pH 6.0, 25 °C
[21] = anaerobic, 50 mM sodium phosphate, pH 6.0, 25 °C

Molecule: O=O [O2]
K m(acceptor) (BaAAO [3]): 134 ± 5 µM
k cat/K m(acceptor) (BaAAO [3]): 549000 ± 23000 M⁻¹ s⁻¹
reverse rate constant (k rev), y-axis intercept of reoxidation (PeAAO [4]): 17 s⁻¹
K m(acceptor) (PeAAO [5]; [19]): 67 ± 2 µM
k cat/K m(acceptor) (PeAAO [5]; [19]): 647000 ± 22000 M⁻¹ s⁻¹
K m(acceptor) (BaAAO [6]; [20]): 225 ± 8 µM
k cat/K m(acceptor) (BaAAO [6]; [20]): 312000 ± 12000 M⁻¹ s⁻¹
K m(acceptor) (PeAAO [7]): 176 ± 1 µM
k cat/K m(acceptor) (PeAAO [7]): 1,139 ± 35 s^−1mM^−1
k ox(O2) (PeAAO [8]; PeAAO reduced by 3-Cl-4-methoxybenzyl alcohol, ref Ferreira et al. (2015)): 790 ± 20 ^b s^−1mM^−1
k ox(O2) (PeAAO [8]; PeAAO reduced by 4-methoxybenzyl alcohol, ref Carro et al. (2018a)): 770 ± 40 ^a s^−1mM^−1

B1: BaAAO (Bjerkandera adusta) (protein)
chain: MVTFFTDASQLPATVYDFIVVGAGNAGNVVAARLTEDWKTTVLLIEAGISHEGIDSVAVPGLVLDNLPFSPVMWNYTTVPQAALDNRPIPYAKGRVVGGSSSVNFMEYTRSSNTEYDRWANLTGDAGWSWKNMEQYYLKNSRLVPPQDGHNTTGDVDPSVHGYGPVPLSLVGTPNPLDARMRAATQAPGAEFPFQLDMNGGDMIGFGIVQSTILNGERMHSGKAFLEPAMSRPNLHVLIENTVTRLIQTKTTNGLPSFMKVEFARDALSARSVVTATKEVVLSAGSIGTPQILMLSGIGDREELTAIGVNVTVDNPAVGKHLKDHPIMANYFQVNSNETYDDIFRDRDVSNTFLAQWKQNRTGPMVASPSTGLGFFRLPDNDTIFERFADPSPGEGAGHIELILSNQWTPEVQIPPATGSFLTVHAVVVSPASEGTVRLNSTNPFEFPLLDPQLLSSEFDQHTIIHAARLARQFVSSSPWADFVESRTGIIGDTDDDEADLLAAARQATVTIWHPMCTARMAPKGSTDGAIDPDLLVKGVSGLRVIDGAALPAIPATHPMAAIYLLAERGSDLIKQKWKL
Km [14]: 66 ± 12 µM
Km ([15]; BQ as e− acceptor (anaerobic)): 26 ± 4 µM
kcat ([15]; BQ as e− acceptor (anaerobic)): 23 ± 1 s⁻¹
kcat/Km ([15]; BQ as e− acceptor (anaerobic)): 910000 ± 146000 M⁻¹ s⁻¹
Km ([15]; O2 as e− acceptor): 94 ± 4 µM
kcat ([15]; O2 as e− acceptor): 70 ± 1 s⁻¹
kcat/Km ([15]; O2 as e− acceptor): 747000 ± 32000 M⁻¹ s⁻¹

B2: PeAAO (Pleurotus eryngii) (protein)
chain: ADFDYVVVGAGNAGNVVAARLTEDPDVSVLVLEAGVSDENVLGAEAPLLAPGLVPNSIFDWNYTTTAQAGYNGRSIAYPRGRMLGGSSSVHYMVMMRGSTEDFDRYAAVTGDEGWNWDNIQQFVRKNEMVVPPADNHNTSGEFIPAVHGTNGSVSISLPGFPTPLDDRVLATTQEQSEEFFFNPDMGTGHPLGISWSIASVGNGQRSSSSTAYLRPAQSRPNLSVLINAQVTKLVNSGTTNGLPAFRCVEYAEQEGAPTTTVCAKKEVVLSAGSVGTPILLQLSGIGDENDLSSVGIDTIVNNPSVGRNLSDHLLLPAAFFVNSNQTFDNIFRDSSEFNVDLDQWTNTRTGPLTALIANHLAWLRLPSNSSIFQTFPDPAAGPNSAHWETIFSNQWFHPAIPRPDTGSFMSVTNALISPVARGDIKLATSNPFDKPLINPQYLSTEFDIFTMIQAVKSNLRFLSGQAWADFVIRPFDPRLRDPTDDAAIESYIRDNANTIFHPVGTASMSPRGASWGVVDPDLKVKGVDGLRIVDGSILPFAPNAHTQGPIYLVGKQGADLIKADQ
Km [16]: 29 ± 2 µM
Km ([17]; BQ as e− acceptor (anaerobic)): 4 ± 1 µM
kcat ([17]; BQ as e− acceptor (anaerobic)): 21 ± 1 s⁻¹
kcat/Km ([17]; BQ as e− acceptor (anaerobic)): 5,874 ± 481 s^−1mM^−1
Km ([17]; O2 as e− acceptor): 11 ± 1 µM
kcat ([17]; O2 as e− acceptor): 43 ± 1 s⁻¹
kcat/Km ([17]; O2 as e− acceptor): 3,806 ± 122 s^−1mM^−1

Continued, in another order:

k on (PeAAO [1]; [18]): 37000 ± 1000 M⁻¹ s⁻¹
k off (PeAAO [1]; 50 mM sodium phosphate, pH 6.0, 12 °C, nd = not detected): no dissociation
k off (BaAAO [2]; [18]): 13 ± 1 s⁻¹
k on (BaAAO [2]; [18]): 47000 ± 2000 M⁻¹ s⁻¹
Kd (BaAAO [2]; read-out: K d(acid), K d = k off/k on, pH 6.0, 12 °C): 276 ± 38 µM
Molecule: COc1ccc(C(=O)O)cc1Cl [3-Cl-4-methoxybenzoic acid]

k cat lower than for the other substrate (4-methoxybenzyl alcohol) (PeAAO [5]): 4 fold
turnover of BaAAO higher than PeAAO (BaAAO [6]; O2 as electron acceptor): 2 fold
k red (PeAAO [9]; [21]): 96 ± 3 s⁻¹
k red/K d(alcohol) (PeAAO [9]; [21]): 4,486 ± 725 s^−1mM^-1
Kd (PeAAO [9]; anaerobic, 50 mM sodium phosphate, pH 6.0, 25 °C, read-out: K d(alcohol)): 21 ± 3 µM
k red higher than k cat (PeAAO [9]; turnover with BQ): 4 fold
k red higher than k cat (PeAAO [9]; turnover with O2): 2 fold
k red (BaAAO [10]): 121 ± 11 s⁻¹
k red/K d(alcohol) (BaAAO [10]): 404000 ± 127000 M⁻¹ s⁻¹
Kd (BaAAO [10]; read-out: K d(alcohol)): 300 ± 91 µM
reduced form of the enzyme during turnover (BaAAO [11]): ≤ 60%
Molecule: COc1ccc(CO)cc1Cl [3-Cl-4-methoxybenzyl, 3-chloro-4-methoxybenzyl alcohol]

k on slower than that of 3-Cl-4-methoxybenzoic acid (PeAAO [1]): approximately 2 fold
Kd (BaAAO [12]): 1810 ± 197 µM
k off (BaAAO [12]; pH 6): 18 ± 2 s⁻¹
k on (BaAAO [12]; pH 6): 10000 ± 1000 M⁻¹ s⁻¹
k on slower than that of 3-Cl-4-methoxybenzoic acid (BaAAO [2]): ~5 fold
Molecule: COc1ccc(C(=O)O)cc1 [4-Methoxybenzoic acid, 4-methoxybenzoic acid]
k off (PeAAO [13]; 50 mM sodium phosphate): 3 ± 1 s⁻¹
k on (PeAAO [13]; 50 mM sodium phosphate): 18000 ± 1000 M⁻¹ s⁻¹
Kd (PeAAO [13]; K d = k off/k on, read-out: K d(acid)): 149 ± 10 µM
